The target of one assay is Chymotrypsin (Bos taurus, UniProt P00766). In words: biochemical.
The target in a further assay is Papain (Carica papaya, UniProt P00784). The class given is biochemical.

Here are results for 2 compounds from article PMC7119080 (Bioorganic & Medicinal Chemistry Letters, 2005).

Sequence of Papain (P00784 134-345 limits assumed): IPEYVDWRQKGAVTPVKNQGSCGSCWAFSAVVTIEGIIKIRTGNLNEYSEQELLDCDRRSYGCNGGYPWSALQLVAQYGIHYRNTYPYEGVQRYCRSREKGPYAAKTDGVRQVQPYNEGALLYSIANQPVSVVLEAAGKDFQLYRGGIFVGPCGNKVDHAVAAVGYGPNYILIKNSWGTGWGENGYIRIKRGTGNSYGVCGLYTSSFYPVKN

`O=C1C(=O)N(Cc2cc3ccccc3s2)c2c(Br)cccc21` [Compound 4k] came in with a concentration for half-maximal inhibition (IC50) against Chymotrypsin of 10.4 µM. Moreover, the “more potent inhibition for SARS CoV 3CL^pro than for papain” value at Papain is given as 90–105 times.
Turning to `O=C1C(=O)N(Cc2cc3ccccc3s2)c2ccc(I)cc21` [Compound 4o], the “more potent inhibition for SARS CoV 3CL^pro than for papain” value at Papain is reported as 90–105 times.

The term IC50 denotes the concentration that inhibits the measured activity by half. A low value points to greater potency in that assay.
